Data set [1] can be described thus: Solubility via potentiometric titration (pSOL solubility profiler). The conditions noted are these: for Solubility data: hydrochloride; for solubility: water, thermodynamic from solid. It counts as physicochemical. Here is the method: Solubility data of Forms II, III, IV, V, VI and VIII are measured according to Alex Avdeef et al, Pharm. Pharmacol. Commun.
The pSOLTM solubility profiler, automatically collects potentiometric data, calculates the pH-solubility profiles, and prints the values at 0.1 pH unit intervals. Intrinsic solubilities in the milli-, micro- and nanogram levels can be determined. Also presented are two new concepts, the Flux Factor Profile and Dose Limit Profile. Both concepts follow the guidelines consistent with the BioPharmaceutics Classification Scheme.

A short description of data set [2]: Thermodynamic stability of the forms, energy/temperature diagram (FIG. 27). It counts as physicochemical. The source says:
FIG. 27 is an energy/temperature diagram of Forms III, IV and VII

Read-outs that look alike come from different tables or passages of the source.

By solubility is commonly meant how much of the substance goes into solution per volume.

`Cl.N#Cc1ccc2[nH]cc(CCCCN3CCN(c4ccc5oc(C(N)=O)cc5c4)CC3)c2c1` [Form III, 1-[4-(5-cyanoindol-3-yl)butyl]-4-(2-carbamoyl-benzofuran-5-yl)-piperazine hydrochloride] displayed a Solubility data in data set [1] (potentiometric titration according to Avdeef et al., listed as III) of 0.12 µg/mL. Moreover, the “relative (thermodynamic) stability of the form at room temperature” value in data set [2] (room temperature) is on record as “the most stable form at room temperature”.

In turn, `Cl.N#Cc1ccc2[nH]cc(CCCCN3CCN(c4ccc5oc(C(N)=O)cc5c4)CC3)c2c1` [Form I, 1-[4-(5-cyanoindol-3-yl)butyl]-4-(2-carbamoyl-benzofuran-5-yl)-piperazine hydrochloride] returned a Solubility data in data set [1] (potentiometric titration according to Avdeef et al., listed as I) of 0.08 µg/mL.

In data set [1] (potentiometric titration according to Avdeef et al., listed as II), `Cl.N#Cc1ccc2[nH]cc(CCCCN3CCN(c4ccc5oc(C(N)=O)cc5c4)CC3)c2c1` [Form II, 1-[4-(5-cyanoindol-3-yl)butyl]-4-(2-carbamoyl-benzofuran-5-yl)-piperazine hydrochloride] came in with a Solubility data of 0.03 µg/mL.

As for `Cl.N#Cc1ccc2[nH]cc(CCCCN3CCN(c4ccc5oc(C(N)=O)cc5c4)CC3)c2c1.O` [Form V, 1-[4-(5-cyanoindol-3-yl)butyl]-4-(2-carbamoyl-benzofuran-5-yl)-piperazine hydrochloride monohydrate], the solubility in data set [1] (potentiometric titration according to Avdeef et al., read-out: Solubility data) amounted to 0.18 µg/mL.

In the case of `Cl.N#Cc1ccc2[nH]cc(CCCCN3CCN(c4ccc5oc(C(N)=O)cc5c4)CC3)c2c1` [Form IV, 1-[4-(5-cyanoindol-3-yl)butyl]-4-(2-carbamoyl-benzofuran-5-yl)-piperazine hydrochloride], the Solubility data in data set [1] (potentiometric titration according to Avdeef et al., listed as IV) is 0.33 µg/mL. Besides, the solubility in data set [1] (in water, read-out: solubility in water) is 0.328 µg/mL. Further, the “relative stability of the form at higher temperatures” value in data set [2] (higher temperatures, e.g. >100° C.) is reported as “the most stable form at higher temperatures”.

`Cl.N#Cc1ccc2[nH]cc(CCCCN3CCN(c4ccc5oc(C(N)=O)cc5c4)CC3)c2c1` [Form VI, 1-[4-(5-cyanoindol-3-yl)butyl]-4-(2-carbamoyl-benzofuran-5-yl)-piperazine hydrochloride]: the Solubility data in data set [1] (potentiometric titration according to Avdeef et al., listed as VI) was 0.23 µg/mL.

(Values after patent US8193195B2, “Polymorphic forms of 1-'4-(5-cyanoindol-3-yl) butyl-4-(2-carbamoylbenzofuran-5-yl) piperazine hydrochloride” (Merck Patentgesellschaft, priority 2001, dated 2012).)
